{"source": "patent US6248765A", "about": "“Imidazole derivatives as histamine receptor H3 (ANT) agonists” (priority 1995, dated 2001)", "key": {"[1]": {"tested_on": "cerebral tele-methylhistamine", "experiment": "antagonist effect in vivo: change in the level of cerebral tele-methylhistamine in mice", "settings": "Mus musculus, po, 1.5 h, read-out: Change in the level of cerebral tele-methylhistamine (relative to controls)", "protocol": "Results are collated in Tables II and III below:\nThese various compounds were administered at a dose of 10 mg/kg p.o., and the mice sacrificed 90 min later."}, "[2]": {"tested_on": "cerebral tele-methylhistamine", "experiment": "agonist effect in vivo: change in the level of cerebral tele-methylhistamine in mice", "settings": "for Change in the level of cerebral tele-methylhistamine (relative to controls): H3 partial agonists, mice, 10 mg/kg p.o., 90 min", "protocol": "The effect of a partial agonist in vivo is characterized by the fact that the maximum reduction in the level of tele-methylhistamine which it induces at high dose is smaller than the reduction induced by a reference H3 agonist.\nThese various compounds were administered at a dose of 10 mg/kg p.o. and the mice sacrificed 90 min later."}, "histamine H3 receptor [3]": {"target": "T1, histamine H3 receptor (Rattus norvegicus, UniProt Q9QYN8)", "T1 construct": "synthesized from [^3 H]histidine by synaptosomes of rat cerebral cortex; from tissue; host or cells: rat cerebral cortex synaptosomes", "T1 sequence (Q9QYN8 whole entry)": "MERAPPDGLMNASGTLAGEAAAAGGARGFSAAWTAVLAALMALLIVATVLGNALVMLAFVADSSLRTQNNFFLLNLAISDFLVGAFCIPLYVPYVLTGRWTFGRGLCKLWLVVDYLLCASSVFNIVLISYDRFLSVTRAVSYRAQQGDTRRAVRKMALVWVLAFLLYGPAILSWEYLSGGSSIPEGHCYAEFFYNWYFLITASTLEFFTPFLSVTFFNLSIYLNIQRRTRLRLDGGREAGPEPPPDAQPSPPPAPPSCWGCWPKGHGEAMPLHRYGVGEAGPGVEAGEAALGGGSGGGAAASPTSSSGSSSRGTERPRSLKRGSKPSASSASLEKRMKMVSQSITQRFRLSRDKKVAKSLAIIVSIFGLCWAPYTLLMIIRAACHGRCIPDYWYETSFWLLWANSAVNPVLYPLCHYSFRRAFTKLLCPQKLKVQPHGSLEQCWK", "experiment": "H3 agonist effect: inhibition of [3H]histamine release from synaptosomes of rat cerebral cortex", "type": "biochemical", "settings": "for Emax: maximum inhibition relative to that of exogenous histamine or (R)-alpha-methylhistamine, read-out: Intrinsic activity; for EC50: rat cerebral cortex synaptosomes, inhibition of [3H]histamine release, read-out: EC50 (50% effective concentration of partial agonists)", "protocol": "The partial agonist effect of the compounds is evaluated by comparison of the maximum inhibition which they induce relative to the maximum inhibition induced by exogenous histamine or [R]-α-methylhistamine; the ratio of these two values giving the intrinsic activity of the compound with respect to the system."}, "plasma extravasation": {"tested_on": "plasma extravasation", "experiment": "plasma extravasation induced in rats under the influence of capsaicin (tissue level of Evans blue)", "type": "in vivo", "settings": "capsaicin 90 μg/kg i.v.", "from_the_text": "In contrast, we have discovered that measurement of the activity of the cerebral histaminic neurons in vivo, reflected by the level of tele-methylhistamine, a characteristic metabolite of released histamine, constitutes a more sensitive test of agonist activity. In effect, compounds displaying an intrinsic activity ≤25% in vitro cause, in vivo, a maximum or virtually maximum fall in the level of the tele-methylhistamine. Another sensitive test of H3 agonist activity, in this instance in relation to peripheral organs, consists in measuring the plasma extravasation induced in rats under the influence of capsaicin (90 μg/kg i.v.) and determined by measuring the tissue level of Evans blue, a dye administered at the same time as capsaicin, namely 5 min before infusion and sacrifice (Saria et al., Naunyn-Schmiedeberg's Arch. Pharmacol. 1983, 324: 212)."}, "histamine H3 receptor [4]": {"target": "T1, histamine H3 receptor", "experiment": "H3 antagonist power: reversal of (R)-alpha-methylhistamine-induced inhibition of [3H]histamine release from synaptosomes of rat cerebral cortex", "type": "biochemical", "settings": "read-out: Ki (apparent dissociation constant as histamine antagonist at the H3 receptors)"}, "[5]": {"settings": "H3 antagonists, mice, 10 mg/kg p.o., 90 min"}}, "note": "Counter-ions that a name gives are not always drawn. Like-named read-outs stand apart in the source and are kept apart here.", "data": [{"smiles": "CCCC(=NO)c1ccc(OCCCc2c[nH]cn2)cc1", "note": "[Example 140, (4-(3-(1H-Imidazol-4-yl)propyloxy)phenyl)butanone oxime]", "values": [{"measurement": "change in vivo at 10 mg/kg", "setting": "[1]; [5]", "result": 84, "unit": "%"}]}, {"smiles": "CC(=O)c1ccc(OCCCc2c[nH]cn2)cc1", "note": "[Example 78, (4-(3-(1H-Imidazol-4-yl)propyloxy)phenyl)ethanone]", "values": [{"measurement": "change in vivo at 10 mg/kg", "setting": "[1]; [5]", "result": 68, "unit": "%"}]}, {"smiles": "O=C(c1ccc(OCCCc2c[nH]cn2)cc1)C1CC1", "note": "[Example 81, Cyclopropyl 4-(3-(1H-imidazol-4-yl)propyloxy)phenyl ketone]", "values": [{"measurement": "change in vivo at 10 mg/kg", "setting": "[1]", "result": 72, "unit": "%"}]}, {"smiles": "O=C(NC(c1ccccc1)c1ccccc1)OCCCc1c[nH]cn1", "note": "[Example 2, 3-(1H-Imidazol-4-yl)propyl-N-(diphenylmethyl) carbamate]", "values": [{"measurement": "Change in the level of cerebral tele-methylhistamine (relative to controls)", "setting": "[2]", "result": -30, "unit": "%"}, {"measurement": "response in the tele-methylhistamine test compared with (R)-α-methylhistamine", "setting": "[2]; in vivo, in words", "result": "a response akin to that of (R)-α-methylhistamine"}, {"measurement": "behaviour in vitro at the H3 receptor", "setting": "histamine H3 receptor [3]; in vitro, in words", "result": "behaves essentially as an antagonist"}, {"measurement": "Emax", "setting": "histamine H3 receptor [3]; in vitro", "result": "~20", "unit": "%"}, {"measurement": "EC50", "setting": "histamine H3 receptor [3]", "result": 100, "unit": "nM"}, {"measurement": "response in the capsaicin-induced plasma extravasation test compared with (R)-α-methylhistamine", "setting": "plasma extravasation", "result": "a response akin to that of (R)-α-methylhistamine"}]}, {"smiles": "C=CCNC(=O)OCCCc1c[nH]cn1", "note": "[Example 112, 3-(1H-Imidazol-4-yl)propyl-N-(2-propenyl) carbamate]", "values": [{"measurement": "change in vivo at 10 mg/kg", "setting": "[1]; [5]", "result": 98, "unit": "%"}]}, {"smiles": "CCC(C)(C)NC(=O)OCCCc1c[nH]cn1", "note": "[Example 110, 3-(1H-Imidazol-4-yl)propyl N-(2-methyl-2-butyl)carbamate]", "values": [{"measurement": "functional class at the histamine H3 receptors (agonists)", "setting": "histamine H3 receptor [3]; in words", "result": "agonists or partial agonists"}]}, {"smiles": "CCCCCNC(=O)OCCCc1c[nH]cn1", "note": "[Example 30, 3-(1H-Imidazol-4-yl)propyl-N-pentyl carbamate]", "values": [{"measurement": "change in vivo at 10 mg/kg", "setting": "[1]; [5]", "result": 67, "unit": "%"}]}, {"smiles": "CCCCCCCOCCCc1c[nH]cn1", "note": "[Example 64, 3-(1H-Imidazol-4-yl)propyl heptyl ether]", "values": [{"measurement": "Ki", "setting": "histamine H3 receptor [4]", "result": 16, "unit": "nM"}]}, {"smiles": "CCCN(CCC)C(=O)OCCCc1c[nH]cn1", "note": "[Example 39, 3-(1H-Imidazol-4-yl)propyl-N,N-dipropyl carbamate]", "values": [{"measurement": "change in vivo at 10 mg/kg", "setting": "[1]; [5]", "result": 84, "unit": "%"}]}, {"smiles": "CON=C(C)c1ccc(OCCCc2c[nH]cn2)cc1", "note": "[Example 93, (4-(3-(1H-Imidazol-4-yl)propyloxy)phenyl)ethanone O-methyloxime]", "values": [{"measurement": "Ki", "setting": "histamine H3 receptor [4]", "result": 25, "unit": "nM"}]}, {"smiles": "CC(C)CCOCCCc1c[nH]cn1", "note": "[Example 5, 3-(1H-Imidazol-4-yl)propyl 3-methylbutyl ether]", "values": [{"measurement": "Change in the level of cerebral tele-methylhistamine (relative to controls)", "setting": "[2]", "result": -52, "unit": "%"}, {"measurement": "Emax", "setting": "histamine H3 receptor [3]; in vitro", "result": 20, "unit": "%"}, {"measurement": "EC50", "setting": "histamine H3 receptor [3]", "result": 130, "unit": "nM"}]}, {"smiles": "Cc1cc(C)cc(NC(=O)OCCCc2c[nH]cn2)c1", "note": "[Example 115, N-(3,5-Dimethylphenyl)-3-(1H-imidazol-4-yl)propyl carbamate]", "values": [{"measurement": "Ki", "setting": "histamine H3 receptor [4]", "result": 44, "unit": "nM"}]}, {"smiles": "c1ccc2cc(COCCCc3c[nH]cn3)ccc2c1", "note": "[Example 56, 3-(1H-Imidazol-4-yl)propyl 2-naphthylmethyl ether]", "values": [{"measurement": "Ki", "setting": "histamine H3 receptor [4]", "result": 22, "unit": "nM"}]}, {"smiles": "Cc1ccc(OCCc2c[nH]cn2)cc1", "note": "[Example 160, 4-[2-(4-Methylphenoxy)ethyl]-1H-imidazole oxalate]", "values": [{"measurement": "change in vivo at 10 mg/kg", "setting": "[1]; [5]", "result": 95, "unit": "%"}]}, {"smiles": "FC(F)(F)c1cccc(OCCCc2c[nH]cn2)c1", "note": "[Example 8, 4-[3-(3-Trifluoramethylphenoxy)propyl]-1H-imidazole]", "values": [{"measurement": "Change in the level of cerebral tele-methylhistamine (relative to controls)", "setting": "[2]", "result": -41, "unit": "%"}, {"measurement": "Emax", "setting": "histamine H3 receptor [3]; in vitro", "result": 40, "unit": "%"}, {"measurement": "EC50", "setting": "histamine H3 receptor [3]", "result": 100, "unit": "nM"}]}, {"smiles": "c1nc(CCCOCCC2CC3CCC2C3)c[nH]1", "note": "(centres unmarked) [Example 61, 2-(Bicyclo[2.2.1]hept-2-yl)ethyl 3-(1H-imidazol-4-yl)propyl ether]", "values": [{"measurement": "Ki", "setting": "histamine H3 receptor [4]", "result": 0.5, "unit": "nM"}]}, {"smiles": "CSc1ccc(OCCCc2c[nH]cn2)cc1", "note": "[Example 166, 4-[3-(4-Thiomethylphenoxy)propyl]-1H-imidazole oxalate]", "values": [{"measurement": "Ki", "setting": "histamine H3 receptor [4]", "result": 3, "unit": "nM"}]}, {"smiles": "CC(C)(C)CNC(=O)OCCCc1c[nH]cn1", "note": "[Example 111, N-(2,2-Dimethylpropyl)-3-(1H-imidazol-4-yl)propyl carbamate]", "values": [{"measurement": "Change in the level of cerebral tele-methylhistamine (relative to controls)", "setting": "[2]", "result": -34, "unit": "%"}, {"measurement": "functional class at the histamine H3 receptors (agonists)", "setting": "histamine H3 receptor [3]; in words", "result": "agonists or partial agonists"}]}, {"smiles": "c1nc(CCCOc2ccc3c(c2)CCCC3)c[nH]1", "note": "[Example 21, 4-[3-(1,2,3,4-Tetrahydro-6-naphthyloxy)propyl]-1H-imidazole]", "values": [{"measurement": "Ki", "setting": "histamine H3 receptor [4]", "result": 45, "unit": "nM"}, {"measurement": "change in vivo at 10 mg/kg", "setting": "[1]; [5]", "result": 79, "unit": "%"}]}, {"smiles": "CC(=O)c1cccc(SCCc2c[nH]cn2)c1.O=C(O)C(=O)O", "note": "[Example 157, 4-[2-(3-Ethanoylphenylthio)ethyl]-1H-imidazole oxalate]", "values": [{"measurement": "Change in the level of cerebral tele-methylhistamine (relative to controls)", "setting": "[2]", "result": -38, "unit": "%"}]}, {"smiles": "Cc1nc(-c2ccc(OCCCc3c[nH]cn3)cc2)no1", "note": "[Example 149, 3-(1H-Imidazol-4-yl)propyl 4-(5-methyl-1,2,4-oxadiazol-3-yl)phenyl ether]", "values": [{"measurement": "Ki", "setting": "histamine H3 receptor [4]", "result": 44, "unit": "nM"}]}]}
